Values quoted from earlier work as cited in US20220079925A1, “COMPOSITIONS COMPRISING TACROLIMUS FOR THE TREATMENT OF INTRAOCULAR INFLAMMATORY EYE DISEASES” (NOVALIQ GMBH, priority 2016, published 2022).

Key:
T-lymphocyte = details: inhibiting T-lymphocyte signal transduction and cell proliferation
[1] = topical administration

## C=CC[C@@H]1/C=C(\C)C[C@H](C)C[C@H](OC)[C@H]2O[C@@](O)(C(=O)C(=O)N3CCCC[C@H]3C(=O)O[C@H](/C(C)=C/[C@@H]3CC[C@@H](O)[C@H](OC)C3)[C@H](C)[C@@H](O)CC1=O)[C@H](C)C[C@@H]2OC [Tacrolimus]
T-lymphocyte
  potency relative to cyclosporine: 100 times
[1]
  ability to penetrate tissue barrier: poor
